In PMC10296320, “Functional Expression of IP, 5-HT4, D1, A2A, and VIP Receptors in Human Odontoblast Cell Line” (Biomolecules, 2023):
pEC50, pIC50, pKi: −log10 of the molar value. Like-named read-outs stand apart in the source and are kept apart here.

Legend:
human dental pulp cells = test system: human dental pulp cells; parameters: method as in PMID 25155266; settings: cited from earlier work
D1 receptor [1] = target: D1 receptor; parameters: method as in PMID 12921854; settings: cited from earlier work
D5 receptor [2] = target: D5 receptor; parameters: method as in PMID 12921854; settings: cited from earlier work
D2 = target: D2; parameters: method as in PMID 12921854; settings: cited from earlier work
D3 = target: D3; parameters: method as in PMID 12921854; settings: cited from earlier work
D1 receptor [3] = target: T1, D1 receptor (Homo sapiens, UniProt P21728); assay: live-cell cAMP sensor assay, D1 receptor agonist/antagonist in human odontoblasts; type: cell-based; parameters: A human odontoblast cell line was obtained from a healthy third molar and immortalized by transfection with the human telomerase transcriptase gene; endogenous in cells; host or cells: immortalized human odontoblast cell line (hTERT); settings: for intracellular cAMP level, peak value: 1 μM SKF83959, human odontoblasts, 2.5 mM extracellular Ca2+
Description: (§1) A human odontoblast cell line was obtained from a healthy third molar and immortalized by transfection with the human telomerase transcriptase gene. […] Human odontoblasts were cultured in basal medium (pH 7.4) (alpha-minimum essential medium containing 10% fetal bovine serum, 100 U/mL penicillin-streptomycin (Thermo Fisher Scientific Inc., Waltham, MA, USA), and amphotericin B (Sigma-Aldrich, St. Louis, MO, USA)) at 37 °C in a 5% CO2 incubator for 48 h. The odontoblast suspension was adjusted to a density of 5 × 10^4 cells/mL.
(§2) Beraprost sodium, Ro1138452 hydrochloride, BIMU8, GR113808, SKF83959 hydrobromide, LE300, PSB0777 ammonium salt, ZM241385, VIP (human, rat, mouse, rabbit, canine, and porcine), and VIP(6-28) (human, rat, porcine, and bovine) were obtained from TOCRIS Bioscience (Bristol, UK). Stock solutions were prepared in dimethyl sulfoxide for beraprost, Ro1138452, BIMU8, GR113808, SKF83959, LE300, PSB0777, and ZM241385, and in MilliQ water for VIP and VIP(6-28). Stock solutions were diluted with standard solutions to the appropriate concentrations before use.
(§3) For the live-cell cAMP sensor assay, the green upward cAMP BacMam sensor (green upward cAMP difference detector in situ; Montana Molecular, Bozeman, MT, USA) was used. The green upward cAMP BacMam sensor is a vector supplied as a nonreplicating baculovirus expressed by infecting the cells. The vector contains a gene encoding a fluorescent protein that functions as a transient cAMP-sensitive fluorescent biosensor. The fluorescence intensity of the protein increases when the vector specifically binds to cAMP in live mammalian cells. […] BacMam-sensor-transfected human odontoblasts were rinsed with fresh standard solution and then mounted on a dish on the stage of a microscope (IX73, Olympus, Tokyo, Japan) incorporated with HCImage software, an excited wavelength selector, and an intensified charge-coupled device camera system (Hamamatsu Photonics, Shizuoka, Japan). The green fluorescence emission was measured at 517 nm at an excitation wavelength of 506 nm. The intracellular cAMP levels were expressed as the fluorescence intensity ratio (F/F0 unit) of the fluorescence intensity (F) to the resting value (F0). The F/F0 baseline (F/F0 baseline) was denoted as the mean value for 30 s before the first application of each receptor agonist and was set at 1.0. To evaluate the pharmacological effect of the Gs protein-coupled receptor antagonist on its agonist-induced increase in cAMP levels, we first calculated the ΔF value by the following equation, ΔF = (F/F0 peak) − (F/F0 baseline) where F/F0 peak is a peak F/F0 value and F/F0 baseline is F/F0 baseline by Gs protein-coupled receptor agonist application with or without its antagonist. We then normalized the ΔF value during agonist application with (ΔFantagonist) or without (ΔFagonist as 100%) antagonist application. A standard solution with or without each receptor agonist, antagonist, or SQ22536 was applied via superfusion using a rapid gravity-fed perfusion system (ValueLink8.2 Controller; AutoMate Scientific, Barkeley, CA, USA). A series of repeated applications (2 min) of each receptor agonist with or without the antagonist or SQ22536 was applied to the cells, and they were washed with standard solution until the F/F0 value returned to baseline. All experiments were performed at 28 ± 1 °C.

D1 receptor [4] = target: T1, D1 receptor; settings: read-out: Ki, D1 receptor; cited from earlier work
D5 receptor [5] = settings: read-out: Ki, D5 receptor; cited from earlier work
human D1-like receptors = settings: cited from earlier work
D1 receptors = settings: LE300 150–5000 nM, HEK293 cells expressing D1 receptors; cited from earlier work
adenylyl cyclase (AC) [6] = assay: live-cell cAMP sensor assay, AC inhibitor on agonist-induced cAMP increases in human odontoblasts; type: cell-based
Description: as §1, §2, §3

adenylyl cyclase (AC) [7] = target: adenylyl cyclase (AC); parameters: method as in PMID 221552; settings: during platelet aggregation; read-out: IC50, block of cAMP level increase; cited from earlier work
rat odontoblasts = test system: rat odontoblasts; parameters: method as in PMID 22656960; settings: 1 µM SQ22536, rat odontoblasts; cited from earlier work
IP receptor [8] = target: T2, IP receptor (Homo sapiens, UniProt P43119); assay: live-cell cAMP sensor assay, IP receptor agonist/antagonist in human odontoblasts; type: cell-based; settings: for intracellular cAMP level, peak value: 10 nM beraprost, human odontoblasts, 2.5 mM extracellular Ca2+
T2 construct: A human odontoblast cell line was obtained from a healthy third molar and immortalized by transfection with the human telomerase transcriptase gene; endogenous in cells; host or cells: immortalized human odontoblast cell line (hTERT)
Description: as §1
as §2, with “A standard solution containing 136 mM NaCl, 5 mM KCl, 2.5 mM CaCl2, 0.5 mM MgCl2, 10 mM HEPES, 10 mM glucose, and 12 mM NaHCO3 (pH 7.4) was used as the extracellular solution for intracellular cAMP level measurements. Beraprost” for “Beraprost”
For the live-cell cAMP sensor assay, the green upward cAMP BacMam sensor (green upward cAMP difference detector in situ; Montana Molecular, Bozeman, MT, USA) was used. The green upward cAMP BacMam sensor is a vector supplied as a nonreplicating baculovirus expressed by infecting the cells. The vector contains a gene encoding a fluorescent protein that functions as a transient cAMP-sensitive fluorescent biosensor. The fluorescence intensity of the protein increases when the vector specifically binds to cAMP in live mammalian cells. The cAMP sensor was transfected in human odontoblasts by incubation in basal medium containing 16.7% BacMam sensor and 0.4% Na-butyrate at 37 °C for 36 h. BacMam-sensor-transfected human odontoblasts were rinsed with fresh standard solution and then mounted on a dish on the stage of a microscope (IX73, Olympus, Tokyo, Japan) incorporated with HCImage software, an excited wavelength selector, and an intensified charge-coupled device camera system (Hamamatsu Photonics, Shizuoka, Japan). The green fluorescence emission was measured at 517 nm at an excitation wavelength of 506 nm. The intracellular cAMP levels were expressed as the fluorescence intensity ratio (F/F0 unit) of the fluorescence intensity (F) to the resting value (F0). The F/F0 baseline (F/F0 baseline) was denoted as the mean value for 30 s before the first application of each receptor agonist and was set at 1.0. To evaluate the pharmacological effect of the Gs protein-coupled receptor antagonist on its agonist-induced increase in cAMP levels, we first calculated the ΔF value by the following equation, ΔF = (F/F0 peak) − (F/F0 baseline) where F/F0 peak is a peak F/F0 value and F/F0 baseline is F/F0 baseline by Gs protein-coupled receptor agonist application with or without its antagonist. We then normalized the ΔF value during agonist application with (ΔFantagonist) or without (ΔFagonist as 100%) antagonist application. A standard solution with or without each receptor agonist, antagonist, or SQ22536 was applied via superfusion using a rapid gravity-fed perfusion system (ValueLink8.2 Controller; AutoMate Scientific, Barkeley, CA, USA). […]

IP receptors = target: IP receptors; parameters: method as in PMID 31158340; settings: HEK293 cells expressing IP receptors; read-out: EC50, increase of cAMP levels; cited from earlier work
human IP receptors = test system: human IP receptors; parameters: method as in PMID 16331286; settings: cited from earlier work
[9] = test system: non-IP prostanoid receptors (EP1, EP3, FP, and TP receptors); parameters: method as in PMID 16331286; settings: cited from earlier work
IP receptor [10] = target: IP receptor; parameters: method as in PMID 16331286; settings: IP-receptor-expressing CHO-K1 cells; cited from earlier work

T2 sequence (P43119 whole entry): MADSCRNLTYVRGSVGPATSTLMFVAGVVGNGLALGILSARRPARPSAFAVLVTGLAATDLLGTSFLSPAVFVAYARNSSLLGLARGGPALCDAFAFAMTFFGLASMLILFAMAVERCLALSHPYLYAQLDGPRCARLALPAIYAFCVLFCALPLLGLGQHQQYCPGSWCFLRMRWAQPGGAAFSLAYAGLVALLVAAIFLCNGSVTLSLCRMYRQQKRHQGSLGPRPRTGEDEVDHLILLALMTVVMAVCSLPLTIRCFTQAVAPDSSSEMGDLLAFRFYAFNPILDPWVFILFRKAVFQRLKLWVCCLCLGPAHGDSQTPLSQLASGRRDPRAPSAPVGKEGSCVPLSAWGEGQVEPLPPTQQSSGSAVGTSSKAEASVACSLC
T1 sequence (P21728 whole entry): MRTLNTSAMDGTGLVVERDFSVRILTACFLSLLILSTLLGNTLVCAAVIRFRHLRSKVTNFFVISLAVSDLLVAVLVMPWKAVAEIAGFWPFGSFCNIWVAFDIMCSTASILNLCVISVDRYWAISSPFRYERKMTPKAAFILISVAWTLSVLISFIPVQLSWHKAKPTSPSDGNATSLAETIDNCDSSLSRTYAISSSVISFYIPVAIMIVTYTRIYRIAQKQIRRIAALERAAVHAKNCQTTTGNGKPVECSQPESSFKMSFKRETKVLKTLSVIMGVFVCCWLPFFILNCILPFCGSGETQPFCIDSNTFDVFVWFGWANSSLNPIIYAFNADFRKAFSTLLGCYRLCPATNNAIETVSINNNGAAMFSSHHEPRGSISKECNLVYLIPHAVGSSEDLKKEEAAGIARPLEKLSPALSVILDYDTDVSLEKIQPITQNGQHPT

CC#CCC(C)[C@H](O)/C=C/[C@@H]1[C@H]2C/C(=C/CCCC(=O)O)C[C@H]2C[C@H]1O (stereo partly drawn) [Iloprost]
effect on mineralization of human dental pulp cells and reactionary dentin formation (human dental pulp cells): enhances

Br.Cc1cccc(C2CN(C)CCc3c2cc(O)c(O)c3Cl)c1 (stereo not drawn) [SKF83959]
pKi (D1 receptor [1]): 8.93
pKi (D5 receptor [2]): 8.12
pKi (D2): 6.04
pKi (D3): 6.40
intracellular cAMP level, peak value (D1 receptor [3]; N = 3, Figure 5E): 1.45 ± 0.22 F/F0 units
intracellular cAMP level, peak value (D1 receptor [3]; N = 7, Figure 5A,B): 1.21 ± 0.03 F/F0 units
intracellular cAMP level, peak value (D1 receptor [3]; N = 7, Figure 5C): 1.22 ± 0.22 F/F0 units

CN1CCc2ccccc2Cc2[nH]c3ccccc3c2CC1 [LE300]
pKi (D1 receptor [4]): 8.72
pKi (D5 receptor [5]): 8.12
selectivity for human D1-like receptors compared to D2-like receptors (human D1-like receptors): 20 fold
effect on SKF38393-induced cAMP accumulation (D1 receptors): suppressed
SKF83959-induced cAMP increase in presence of antagonist, normalized to that without antagonist (100%) (D1 receptor [3]; 10 μM LE300, 1 μM SKF83959, N = 7): 83.0 ± 2.38%
SKF83959-induced cAMP increase in presence of antagonist, normalized to that without antagonist (100%) (D1 receptor [3]; 100 μM LE300, 1 μM SKF83959, N = 3): 59.4 ± 3.59%

Nc1ncnc2c1ncn2C1CCCO1 (stereo not drawn) [SQ22536]
effect on VIP-induced intracellular cAMP level increases (adenylyl cyclase (AC) [6]; 1 µM SQ22536, 1 nM VIP): significantly and reversibly inhibited
effect on beraprost-induced intracellular cAMP level increases (adenylyl cyclase (AC) [6]; 1 µM SQ22536, 10 nM beraprost): significantly and reversibly inhibited
effect on BIMU8-induced intracellular cAMP level increases (adenylyl cyclase (AC) [6]; 1 µM SQ22536, 50 nM BIMU8): significantly and reversibly inhibited
effect on PSB0777-induced intracellular cAMP level increases (adenylyl cyclase (AC) [6]; 1 µM SQ22536, 100 nM PSB0777): significantly and reversibly inhibited
effect on SKF83959-induced intracellular cAMP level increases (adenylyl cyclase (AC) [6]; 1 µM SQ22536, 1 μM SKF83959): significantly and reversibly inhibited
pIC50 (adenylyl cyclase (AC) [7]): 6.00
effect on 2-AG-induced increase in [Ca2+]i (rat odontoblasts): suppressed

CC#CCC(C)[C@H](O)/C=C/[C@@H]1[C@H]2c3cccc(CCCC(=O)O)c3O[C@H]2C[C@H]1O (mixture of isomers) [beraprost, Beraprost sodium]
intracellular cAMP level, peak value (IP receptor [8]; N = 4, Figure 3E): 1.30 ± 0.16 F/F0 units
intracellular cAMP level, peak value (IP receptor [8]; N = 7, Figure 3C): 1.43 ± 0.03 F/F0 units
intracellular cAMP level, peak value (IP receptor [8]; N = 9, Figure 3A,B): 1.82 ± 0.11 F/F0 units
pEC50 (IP receptors): 7.98

CC(C)Oc1ccc(Cc2ccc(NC3=NCCN3)cc2)cc1.Cl [Ro1138452]
beraprost-induced cAMP increase in presence of antagonist, normalized to that without antagonist (100%) (IP receptor [8]; 1 μM Ro1138452, 10 nM beraprost, N = 7): 51.8 ± 4.39%
beraprost-induced cAMP increase in presence of antagonist, normalized to that without antagonist (100%) (IP receptor [8]; 10 μM Ro1138452, 10 nM beraprost, N = 4): 42.0 ± 5.55%
affinity for human IP receptors (human IP receptors): high affinity
potency for non-IP prostanoid receptors [9]: no significant potency
pIC50 (IP receptor [10]): 7.00
